The results in this text go back to patent US10221215B2, “Hydrogen bond surrogate macrocycles as modulators of Ras” (New York University, priority 2011, dated 2019).

Non-standard residues stand in square brackets, D forms with d. Residues, ends and D or L forms follow the SMILES beside them. Aib = CC(C)(N)C(=O)O

The nature of this data set: Solubility of peptides and HBS helices. Type of data set: physicochemical. The procedure:
Design of Ras/Sos inhibitors was performed starting with the wild-type Sos929-944 α-H sequence. Additional modifications were introduced in order to improve the solubility of the HBS peptides. Charged residues were introduced at positions not involved in Ras binding. Computational alanine scanning was performed on two separate crystal structures (PDB codes: 1NVW and 1BKD) of the Ras/Sos complex to determine other important binding residues in the α-H helix that may be incorporated in the peptide mimetics. Additionally, non-essential β-branched residues (including threonine) in the wild-type α-H sequence were replaced with suitable residues to afford peptides with higher helical content (Table 1), as it was hypothesized that such modifications would improve α-helicity.
“Ac-FEGIYRTDILRTEEGN-NH2 (N-terminus assumed) [Peptide 1]”: the Solubility result is reported as “partially”. For “Ac-FEGIYRLELLKAEEAN-NH2 (N-terminus assumed) [Peptide 7]” the value was “soluble”. To “Ac-FEGIYRTDILR-NH2 (N-terminus assumed) [Peptide 5]” belongs “soluble”; to `CC[C@H](C)[C@H](NC(=O)CN1CC=CCCC(=O)N[C@@H](Cc2ccccc2)C(=O)N[C@@H](CCC(=O)O)C1=O)C(=O)N[C@@H](Cc1ccc(O)cc1)C(=O)N[C@@H](CCCNC(=N)N)C(=O)N[C@H](C(=O)N[C@@H](CCC(=O)O)C(=O)N[C@@H](CC(C)C)C(=O)N[C@@H](CC(C)C)C(=O)N[C@@H](CCCCN)C(=O)N[C@@H](C)C(=O)N[C@@H](CCC(=O)O)C(=O)N[C@@H](CCC(=O)O)C(=O)N[C@@H](C)C(=O)N[C@@H](CC(N)=O)C(N)=O)[C@@H](C)O` [HBS 6], “soluble”. For `CC[C@H](C)[C@H](NC(=O)[C@H](C)N1CC=CCCC(=O)N[C@@H](Cc2ccccc2)C(=O)N[C@@H](CCC(=O)O)C1=O)C(=O)N[C@@H](Cc1ccc(O)cc1)C(=O)N[C@@H](CCCNC(=N)N)C(=O)N[C@@H](CC(C)C)C(=O)N[C@@H](CCC(=O)O)C(=O)N[C@@H](CC(C)C)C(=O)N[C@@H](CC(C)C)C(=O)N[C@@H](CCCCN)C(=O)N[C@@H](C)C(=O)N[C@@H](CCC(=O)O)C(=O)N[C@@H](CCC(=O)O)C(=O)N[C@@H](C)C(=O)N[C@@H](CC(N)=O)C(N)=O` [HBS 13] the value was “soluble”. As to `CC[C@H](C)[C@H](NC(=O)CN1CC=CCCC(=O)N[C@@H](Cc2ccccc2)C(=O)N[C@@H](CCC(=O)O)C1=O)C(=O)N[C@@H](Cc1ccc(O)cc1)C(=O)N[C@@H](CCCNC(=N)N)C(=O)N[C@@H](CC(C)C)C(=O)N[C@@H](CCC(=O)O)C(=O)N[C@@H](CC(C)C)C(=O)N[C@@H](CC(C)C)C(=O)N[C@@H](CCCCN)C(=O)NC(C)(C)C(=O)N[C@@H](CCC(=O)O)C(=O)N[C@@H](CCC(=O)O)C(=O)NC(C)(C)C(=O)N[C@@H](CC(N)=O)C(N)=O` [HBS 11], the Solubility entry is “soluble”.

As to “Ac-FEGIYRLELLK-NH2 (N-terminus assumed) [Peptide 8]”, the Solubility entry is listed as “soluble”. To `CC(C)C[C@H](NC(=O)CN1CC=CCCC(=O)N[C@@H](Cc2ccccc2)C(=O)N[C@@H](CCC(=O)O)C1=O)C(=O)N[C@@H](CC(C)C)C(=O)N[C@@H](CCCNC(=N)N)C(=O)N[C@@H](CC(C)C)C(=O)N[C@@H](Cc1c[nH]c2ccccc12)C(=O)N[C@@H](CC(C)C)C(=O)N[C@@H](CCCNC(=N)N)C(=O)N[C@@H](CCCCN)C(=O)N[C@@H](C)C(=O)N[C@@H](CCC(=O)O)C(=O)N[C@@H](CCC(=O)O)C(=O)N[C@@H](C)C(=O)N[C@@H](CC(N)=O)C(N)=O` [HBS 12] belongs “soluble”; to `CC[C@H](C)[C@H](NC(=O)CN1CC=CCCC(=O)N[C@@H](Cc2ccccc2)C(=O)N[C@@H](CCC(=O)O)C1=O)C(=O)N[C@@H](Cc1ccc(O)cc1)C(=O)N[C@@H](CCCNC(=N)N)C(=O)N[C@@H](CC(C)C)C(=O)N[C@@H](CCC(=O)O)C(=O)N[C@@H](CC(C)C)C(=O)N[C@@H](CC(C)C)C(=O)N[C@@H](CCCCN)C(=O)N[C@@H](C)C(=O)N[C@@H](CCC(=O)O)C(=O)N[C@@H](CCC(=O)O)C(=O)N[C@@H](C)C(=O)N[C@@H](CC(N)=O)C(N)=O` [HBS 7], “soluble”; to `CC[C@H](C)[C@H](NC(=O)CN1CC=CCCC(=O)N[C@@H](Cc2ccccc2)C(=O)N[C@@H](CCC(=O)O)C1=O)C(=O)N[C@@H](Cc1ccc(O)cc1)C(=O)N[C@@H](CCCNC(=N)N)C(=O)N[C@@H](CC(C)C)C(=O)N[C@@H](CCC(=O)O)C(=O)N[C@@H](CCCCN)C(=O)N[C@@H](CC(C)C)C(=O)N[C@@H](CCCCN)C(=O)N[C@@H](C)C(=O)N[C@@H](CCC(=O)O)C(=O)N[C@@H](CCC(=O)O)C(=O)N[C@@H](C)C(=O)N[C@@H](CC(N)=O)C(=O)N[C@@H](CCCNC(=N)N)C(=O)N[C@@H](CCCNC(=N)N)C(N)=O` [HBS 16], “soluble”.

On to “Ac-FEAIYRLELLKAEEAN-NH2 (N-terminus assumed) [Peptide 13]”, for which the Solubility result is given as “soluble”.

Consider `CC[C@H](C)[C@H](NC(=O)CN1CC=CCCC(=O)N[C@@H](Cc2ccccc2)C(=O)N[C@@H](CCC(=O)O)C1=O)C(=O)N[C@@H](Cc1ccc(O)cc1)C(=O)N[C@@H](CCCNC(=N)N)C(=O)N[C@H](C(=O)N[C@@H](CC(=O)O)C(=O)N[C@H](C(=O)N[C@@H](CC(C)C)C(=O)N[C@@H](CCCNC(=N)N)C(=O)N[C@H](C(=O)N[C@@H](CCC(=O)O)C(=O)N[C@@H](CCC(=O)O)C(=O)NCC(=O)N[C@@H](CC(N)=O)C(N)=O)[C@@H](C)O)[C@@H](C)CC)[C@@H](C)O` [HBS 1], for which the Solubility result is recorded as “partially”. For “Ac-FEGIYRTELLKAEEAN-NH2 (N-terminus assumed) [Peptide 6]” the value was “soluble”. As to `CC[C@H](C)[C@H](NC(=O)CN1CC=CCCC(=O)N[C@@H](Cc2ccccc2)C(=O)N[C@@H](CCC(=O)O)C1=O)C(=O)N[C@@H](Cc1ccc(O)cc1)C(=O)N[C@@H](CCCNC(=N)N)C(=O)N[C@@H](CC(C)C)C(=O)N[C@@H](CCC(=O)O)C(=O)N[C@@H](CC(C)C)C(=O)N[C@@H](CC(C)C)C(=O)N[C@@H](CCCCN)C(N)=O` [HBS 8], the Solubility result is listed as “soluble”. `CC[C@H](C)[C@H](NC(=O)CNC(=O)[C@H](CCC(=O)O)NC(=O)[C@H](Cc1ccccc1)NC(C)=O)C(=O)N[C@@H](Cc1ccc(O)cc1)C(=O)N[C@@H](CCCNC(=N)N)C(=O)N[C@@H](CC(C)C)C(=O)N[C@@H](CCC(=O)O)C(=O)N[C@@H](CC(C)C)C(=O)N[C@@H](CC(C)C)C(=O)N[C@@H](CCCCN)C(=O)NC(C)(C)C(=O)N[C@@H](CCC(=O)O)C(=O)N[C@@H](CCC(=O)O)C(=O)NC(C)(C)C(=O)N[C@@H](CC(N)=O)C(N)=O` [Peptide 11] (Ac-FEGIYRLELLK[Aib]EE[Aib]N-NH2; N-terminus assumed): the Solubility entry was “soluble”. For `CC[C@H](C)[C@H](NC(=O)[C@H](C)N1CC=CCCC(=O)N[C@@H](Cc2ccccc2)C(=O)N[C@@H](CCC(=O)O)C1=O)C(=O)N[C@@H](Cc1ccc(O)cc1)C(=O)N[C@@H](CCCNC(=N)N)C(=O)N[C@@H](CC(C)C)C(=O)N[C@@H](CCC(=O)O)C(=O)N[C@H]1CCCCNC(=O)CC[C@@H](C(=O)N[C@@H](CCC(=O)O)C(=O)N[C@@H](C)C(=O)N[C@@H](CC(N)=O)C(N)=O)NC(=O)[C@H](C)NC(=O)[C@H](CCCCN)NC(=O)[C@H](CC(C)C)NC1=O` [HBS 15] the value was “soluble”.

“Ac-AEGIYRTDILRTEEGN-NH2 (N-terminus assumed) [Peptide 3]”: the Solubility entry is “partially”. Turning to `CC[C@H](C)[C@H](NC(=O)CN1CC=CCCC(=O)N[C@@H](C)C(=O)N[C@@H](CCC(=O)O)C1=O)C(=O)N[C@@H](Cc1ccc(O)cc1)C(=O)N[C@@H](CCCNC(=N)N)C(=O)N[C@@H](CC(C)C)C(=O)N[C@@H](CCC(=O)O)C(=O)N[C@@H](CC(C)C)C(=O)N[C@@H](CC(C)C)C(=O)N[C@@H](CCCCN)C(=O)N[C@@H](C)C(=O)N[C@@H](CCC(=O)O)C(=O)N[C@@H](C)C(=O)N[C@@H](C)C(=O)N[C@@H](C)C(N)=O` [HBS 7^mut], the Solubility result is recorded as “soluble”. To `CC(=O)N[C@@H](Cc1ccccc1)C(=O)N[C@@H](CCC(=O)O)C(=O)NCC(=O)N[C@@H](CC(C)C)C(=O)N[C@@H](CC(C)C)C(=O)N[C@@H](CCCNC(=N)N)C(=O)N[C@@H](CC(C)C)C(=O)N[C@@H](Cc1c[nH]c2ccccc12)C(=O)N[C@@H](CC(C)C)C(=O)N[C@@H](CCCNC(=N)N)C(=O)N[C@@H](CCCCN)C(=O)NC(C)(C)C(=O)N[C@@H](CCC(=O)O)C(=O)N[C@@H](CCC(=O)O)C(=O)NC(C)(C)C(=O)N[C@@H](CC(N)=O)C(N)=O` [Peptide 10] (Ac-FEGLLRLWLRK[Aib]EE[Aib]N-NH2; N-terminus assumed) belongs “soluble”; to “Ac-FEAIYRLEKLKAEEAN-NH2 (N-terminus assumed) [Peptide 15]”, “soluble”; to “Ac-AEGIYRADILRTEEGN-NH2 (N-terminus assumed) [Peptide 4]”, “partially”. For `CC(C)C[C@H](NC(=O)CN1CC=CCCC(=O)N[C@@H](Cc2ccccc2)C(=O)N[C@@H](CCC(=O)O)C1=O)C(=O)N[C@@H](CC(C)C)C(=O)N[C@@H](CCCNC(=N)N)C(=O)N[C@@H](CC(C)C)C(=O)N[C@@H](Cc1c[nH]c2ccccc12)C(=O)N[C@@H](CC(C)C)C(=O)N[C@@H](CCCNC(=N)N)C(=O)N[C@@H](CCCCN)C(=O)NC(C)(C)C(=O)N[C@@H](CCC(=O)O)C(=O)N[C@@H](CCC(=O)O)C(=O)NC(C)(C)C(=O)N[C@@H](CC(N)=O)C(N)=O` [HBS 10] the value was “soluble”; for “Ac-FGEGIYRTDILRTEEGN-NH2 (N-terminus assumed) [Peptide 2]”, “partially”; for `CC(C)C[C@H](NC(=O)CN1CC=CCCC(=O)N[C@@H](Cc2ccccc2)C(=O)N[C@@H](CCC(=O)O)C1=O)C(=O)N[C@@H](CC(C)C)C(=O)N[C@@H](CCCNC(=N)N)C(=O)N[C@@H](CC(C)C)C(=O)N[C@@H](Cc1c[nH]c2ccccc12)C(=O)N[C@@H](CC(C)C)C(=O)N[C@@H](CCCNC(=N)N)C(=O)N[C@@H](CCCCN)C(=O)NC(C)(C)C(=O)N[C@@H](CCC(=O)O)C(=O)N[C@@H](CCC(=O)O)C(=O)N[C@@H](C)C(=O)N[C@@H](CC(N)=O)C(N)=O` [HBS 9], “soluble”. To `CC[C@H](C)[C@H](NC(=O)CNC(=O)[C@H](Cc1ccccc1)NC(=O)[C@H](Cc1ccccc1)NC(C)=O)C(=O)N[C@@H](Cc1ccc(O)cc1)C(=O)N[C@@H](CC(C)C)C(=O)N[C@H](C(=O)N[C@@H](CC(N)=O)C(=O)N[C@H](C(=O)N[C@@H](CC(C)C)C(=O)N[C@@H](CCCCN)C(=O)N[C@H](C(=O)N[C@@H](CCC(=O)O)C(=O)N[C@@H](CCC(=O)O)C(=O)NCC(=O)N[C@@H](CC(N)=O)C(N)=O)[C@@H](C)O)[C@@H](C)CC)[C@@H](C)O` [wt (Sos929-944), reference compound] belongs “insoluble”.
